Test results reported in US20140228314A1, “METHOD FOR PREPARATION OF CHITOSAN OLiGOSACCHARIDES COMPOSITION AND MIXTURE OF CHITOSAN OLiGOSACCHARIDES PREPARED THEREFROM” (KUNPOONG BIO CO., LTD, priority 2013, published 2014).

Test system: SD rats
Assay: Inhibition of postprandial blood glucose rise per saccharide (sucrose load)
Assay type: in vivo, rat
Conditions: 100 mg/kg oral with 2 g/kg sucrose, control 207.8
Protocol: To SD rats, 100 mg/kg (based on body weight) of each of standard substances from monosaccharide to tetra-saccharide and 2 g/kg (based on body weight) of sucrose were orally administered by 1 ml/rat using an oral administration sonde. At 30 minutes, 60 minutes and 120 minutes after the oral administration, blood was collected from the tail vein of each SD rat and a change in blood glucose concentration in venous blood was measured using a blood glucose meter (CareSens II).

Structure (SMILES) | blood glucose at 30 minutes after the meal
N[C@H]1C(O)O[C@H](CO)[C@@H](O)[C@@H]1O (stereo partly drawn) [monosaccharide] | 210.7 mg/dL
N[C@H]1[C@H](O[C@H]2[C@H](O)[C@@H](N)[C@H](O[C@H]3[C@H](O)[C@@H](N)C(O)O[C@@H]3CO)O[C@@H]2CO)O[C@H](CO)[C@@H](O)[C@@H]1O (stereo partly drawn) [trisaccharide] | 179.4 mg/dL
N[C@H]1[C@H](O[C@H]2[C@H](O)[C@@H](N)C(O)O[C@@H]2CO)O[C@H](CO)[C@@H](O)[C@@H]1O (stereo partly drawn) [disaccharide] | 177.6 mg/dL
